# Measured values: patent US9440914B2, “Method for treating glioblastomas and other tumors” (THE FEINSTEIN INSTITUTE FOR MEDICAL RESEARCH, priority 2013, dated 2016)
# What was measured:
# [1] = system: GL261 tumors; assay: orthotopic GL261 glioblastoma model in syngeneic C57Bl/6 mice, intracranial delivery by osmotic pump; format: in vivo, C57BL/6J mice
# Protocol: Animal Experiments: All procedures involving mice were conducted in accordance with the National Institutes of Health regulations concerning the use and care of experimental animals. The study of mice was approved by the Institutional Animal Care and Use Committee (IACUC) of the Feinstein Institute. First, 8 week old male C57BL/6J mice were inoculated in the right caudate putamen with GL261 cells. Briefly, animals were placed in a stereotactic frame after pre-anesthesia exposure in a box of 5% isoflurane. Deep anesthesia was maintained on the frame at approximately 2% isoflurane and 2% O2. A burr hole was drilled 1 mm anterior and 2.5 mm to the right of the bregma. With the aid of the stereotactic frame, GL261 cells (2×10^4 cells suspended in 1 μL) were injected with a Hamilton syringe at a depth of 3 mm over a one min time period. Subsequently, the syringe was left in place for 1 min to prevent reflux.
# Seven days after implantation of the GL261 cells, an osmotic pump (Alzet, Durect) filled with either 0.42 mg/ml solution of semapimod or vehicle was implanted in a subcutaneous pocket on the dorsal flank of the animal. A catheter with attached cannula delivered the drug intracranially over a period of 2 weeks, at a steady rate of 0.25 μl/h, which is equivalent to a dose of […], assuming no blood-brain barrier permeability of the drug. Starting one day after pump implantation, animals were given 2 Gy whole brain irradiation every other day over a period of 10 days (10 Gy total).
# Brains from mice-bearing tumors were frozen on dry ice and stored at −80° C. until processing. The brain was sliced using a cryostat at −20° C. at a thickness of 40 μm (for tumor sizing) or 8 μm for immunohistochemistry. Slices were placed on pre-coated poly-1-lysine slides (Superfrost, Fisher) and fixed in 3.7% formaldehyde in PBS. Sections were stained with Harris-modified haematoxilin solution. Activated microglia were visualized with an Iba1 antibody (Wako). Tumor cell invasion was determined by counting the number of Ki67 (Millipore) positive nuclei located beyond the tumor border. The border was outlined by determining where the bulk of the tumor material was found by Ki67 staining Tumor size was determined as the area of the largest cross section of the tumor, multiplied by the depth of the tumor.
# The cell density of the tumor was calculated by counting the total number of cells in 10 fields taken over different sections and multiplying the tumor area by the thickness of the slice (8 μm) to obtain total number of cells in a tumor section. This was then divided by the volume of the tumor section to obtain the number of cells per unit volume. To obtain the total number of cells in a tumor, the cell density was multiplied by the calculated volume of the tumor.
# Animals were inoculated with 2×10^4 GL261 cells into the right caudate putamen. To deliver semapimod, an osmotic pump was used that was implanted subcutaneously in the dorsal flank of the animal and fed a transcranial cannula that was inserted into the tumor. In order to mimic a therapeutic setting, tumors were allowed to develop for 1 week before the onset of treatment. To score tumor cell invasion, brain sections were probed for the presence of proliferative antigen Ki67. […] Whereas control tumors display diffuse edges and extensive tumor cell invasion into the surrounding parenchyma, semapimod-treated tumors have a sharply demarcated border (FIG. 4A).
# [2] = system: microglia; assay: glioblastoma cell-stimulated microglia invasion (transwell); format: cell-based, murine; conditions: GL261 in bottom well, microglia in BME, 48 h; read-out: IC50 for inhibition of GL261-stimulated microglia invasion
# Protocol: To measure the invasion of microglia toward glioblastoma cells in vitro, a variant of the glioblastoma cell invasion assay was used. First, 15×10^4 G1261 cells were plated in MSFM medium overnight and subsequently were placed in serum free medium. Subsequently, 5×10^4 microglia cells were embedded in 50 μL, of 10 mg/mL BME with or without 200 nM semapimod, placed in a 8 μm transwell (previously coated with 1 μg/mL fibronectin on the bottom side of the 8 μm filter to maintain adhesion of the cells that invaded through the filter) and allowed to polymerize for 30 min at 37° C. The transwell chambers were then placed above the previously plated GL261. After 48 h of incubation, the chambers were fixed in 3.7% formaldehyde in PBS.
# The cells were stained with 0.2% crystal violet in 2% ethanol. The remaining BME was carefully removed and the inserts were allowed to dry. Cells attached to the bottom of the filter were imaged as for the invasion assay and the total number of invaded microglia was determined.
# Semapimod inhibits glioblastoma-induced microglia invasion in vitro: Microglia extensively infiltrate glial tumors (5-7). […] This stimulatory effect is abolished by semapimod, with an IC50 of approximately 60 nM.
# [3] = system: SK-NEP1 human ES cells; assay: metastatic Ewing's Sarcoma mouse model (SK-NEP1 implanted into kidney); format: in vivo, athymic mice
# Protocol: FIG. 8A-8B. CNI-1493 decreases primary tumor size and metastatic burden in a metastatic Ewing's Sarcoma mouse model. 10^6 SK-ENP1 cells were implanted into the kidneys of nude mice and intraperitoneal treatment with CNI-1493 (5 mg/kg/day) or vehicle was initiated one week later. After six weeks of treatment, mice were sacrificed and assessed for primary and metastatic tumor burden. […] Metastatic tumor burden was evaluated with hematoxylin and eosin stained tissue sections by microscopy and calculating surface area per tissue section per mouse using ImageJ software (B).
# (§1) In vivo, human ES cells (SK-NEP1) were surgically implanted into the left kidney of athymic mice. Mice were treated for 7 weeks with CNI-1493 or vehicle. Lung parenchyma was assessed for metastases utilizing both H&E and immunohistochemistry for the ES-specific CD99 and endothelial-specific CD31 markers. In vitro, primary macrophages isolated from human blood were polarized to M1 or M2 phenotypes by exposure to GM-CSF or M-CSF and activated with IFN-γ and LPS or IL-4. Cells were co-cultured with polarized macrophages and underwent proliferation and invasion assays in the presence or absence of CNI-1493.
# [4] = system: SK-NEP1 cells with M2 macrophages; assay: invasion assay of SK-NEP1 co-cultured with polarized primary macrophages; format: cell-based, human; conditions: co-culture with M2 macrophages, p<0.01
# Protocol: FIG. 7. CNI-1493 inhibits tumor invasion in vitro through in the presence of macrophages. When co-cultured with SK-NEP1, macrophages polarized to express the M2 phenotype induced increased tumor cell invasion. This increase in invasion was reversed when co-cultures were exposed to 200 nM CNI-1493. Error bars represent standard deviation.
# as §1
# [5] = two weeks after tumor cell inoculation
smiles,measurement,setting,value
C/C(=N\NC(=N)N)c1cc(NC(=O)CCCCCCCCC(=O)Nc2cc(/C(C)=N/NC(=N)N)cc(/C(C)=N/NC(=N)N)c2)cc(/C(C)=N/NC(=N)N)c1 [semapimod],median survival,"[1]; absence of radiation, controls 20 days, not significant",22 days
same,number of Iba1+ microglia per tumor area,"[1]; equivalent to 6 mg/kg/day intracranially, 1 week",No significant difference
same,inhibition of tumor cell invasion in vivo (Ki67-positive cells beyond tumor border),"[1]; equivalent to 6 mg/kg/day intracranially, 1 week, start 7 days after inoculation",more than 75%
same,tumor cell density,[1]; [5],small but significant increase
same,tumor size (volume),[1]; [5],robust inhibition
same,estimated total number of cells in tumor,"[1]; two weeks after tumor cell inoculation, versus control tumors",significantly less
same,tumors by histological analysis in surviving animals,[1]; with 10 Gy fractionated whole brain irradiation,no detectable tumors
same,survival beyond the median survival time of control animals,"[1]; with 10 Gy fractionated whole brain irradiation, most of the animals",at least 40 days
same,IC50,[2],~60 nM
same,primary tumor size (effect in words),[3]; intraperitoneal 5 mg/kg/day,significantly reduce
same,incidence of metastatic disease,"[3]; intraperitoneal 5 mg/kg/day, p=0.055",21%
same,lung metastases by immunohistochemistry,"[3]; lung tissue, CD99/CD31",micrometastases confined to the vasculature
same,overall metastatic tumor burden,"[3]; treated 7 weeks, versus vehicle, p<0.05",significantly decreased
same,primary tumor size,"[3]; treated 7 weeks, control 7.0±5.2 g, p=0.54, not affected",5.7 ± 3.3 g
same,effect on M2 macrophage-enhanced ES cellular invasion,[4],strongly decreased
